Measured values reported in patent US8293768B2, “Organic compounds” (Novartis AG, priority 2006, dated 2012).

| SMILES | melting point |
| --- | --- |
| Cc1csc(N2CCN(Cc3ccc(C(=O)NCc4ccccc4)cc3)C2=O)n1 [Example 8.9, N-benzyl-4-((3-(4-methylthiazol-2-yl)-2-oxoimidazolidin-1-yl)methyl)benzamide] | 185 to 186 °C |
| Cc1nc(-n2cnn(CCOCc3ccc(F)cc3)c2=O)sc1C(=O)NCc1cccnc1 [Example 49, 2-(1-(2-(4-fluorobenzyloxy)ethyl)-5-oxo-1H-1,2,4-triazol-4(5H)-yl)-4-methyl-N-(pyridin-3-ylmethyl)thiazole-5-carboxamide] | 235 to 236 °C |
| Cc1ncc(CNC(=O)c2sc(N3CCN(Cc4ccc(F)cc4)C3=O)nc2C)s1 [Example 32.12, 2-(3-(4-fluorobenzyl)-2-oxoimidazolidin-1-yl)-4-methyl-N-((2-methylthiazol-5-yl)methyl)thiazole-5-carboxamide] | 213 to 215 °C |
| Cc1nc(-n2cnn(Cc3ccc(C(F)(F)F)cc3)c2=O)sc1C(=O)NCc1cccnc1 [Example 21, 4-methyl-2-(5-oxo-1-(4-(trifluoromethyl)benzyl)-1H-1,2,4-triazol-4(5H)-yl)-N-(pyridin-3-ylmethyl)thiazole-5-carboxamide] | 156 to 158 °C |
| Cc1nc(N2CCN(Cc3ccccc3)S2(=O)=O)sc1C(=O)NCc1cccnc1 [Example 27.2, 2-(5-benzyl-1,1-dioxido-1,2,5-thiadiazolidin-2-yl)-4-methyl-N-(pyridin-3-ylmethyl)-1,3-thiazole-5-carboxamide] | 140 to 142 °C |
| Cc1cc(N2CCN(Cc3ccc(F)cc3)C2=O)sc1C(=O)NCc1nc2ccccc2[nH]1 [Example 55.4, N-((1H-benzo[d]imidazol-2-yl)methyl)-5-(3-(4-fluorobenzyl)-2-oxoimidazolidin-1-yl)-3-methylthiophene-2-carboxamide] | 265 to 267 °C |
| CC(=O)c1sc(N2CCN(Cc3ccc(C(F)(F)F)cc3)C2=O)nc1C [Example 5.10, 1-(5-acetyl-4-methylthiazol-2-yl)-3-(4-(trifluoromethyl)benzyl)imidazolidin-2-one] | 141 to 142 °C |
| Cc1cc(-n2cnn(CCC3CC3)c2=O)sc1C(=O)NCc1cccnc1 [Example 31.2, 5-(1-(2-cyclopropylethyl)-5-oxo-1H-1,2,4-triazol-4(5H)-yl)-3-methyl-N-(pyridin-3-ylmethyl)thiophene-2-carboxamide] | 148 to 150 °C |
| Cc1nc(N2CCN(CCc3ccccc3)C2=O)sc1C(=O)NCc1ccccc1 [Example 9.11, N-benzyl-4-methyl-2-(2-oxo-3-phenethylimidazolidin-1-yl)thiazole-5-carboxamide] | 156 to 157 °C |
| Cc1nc(N2CCN(Cc3ccccc3)C2=O)sc1C(=O)NCc1ccncc1 [Example 9.9, 2-(3-benzyl-2-oxoimidazolidin-1-yl)-4-methyl-N-(pyridin-4-ylmethyl)thiazole-5-carboxamide] | 96 to 97 °C |
| Cc1nc(N2CCN(CC(=O)NCc3ccc(F)cc3)C2=O)sc1C(=O)NCc1ccccc1 [Example 15.5, N-benzyl-2-(3-(2-(4-fluorobenzylamino)-2-oxoethyl)-2-oxoimidazolidin-1-yl)-4-methylthiazole-5-carboxamide] | 232 to 234 °C |
| Cc1nc(N2CCN(CC3CCCCC3)C2=O)sc1C(=O)NCc1cccnc1 [Example 9.35, 2-(3-(cyclohexylmethyl)-2-oxoimidazolidin-1-yl)-4-methyl-N-(pyridin-3-ylmethyl)thiazole-5-carboxamide] | 134 to 136 °C |
| Cc1csc(N2CCN(Cc3ccc(C(=O)n4nccc4C)cc3)C2=O)n1 [Example 8.8, 1-(4-(5-methyl-1H-pyrazole-1-carbonyl)benzyl)-3-(4-methylthiazol-2-yl)imidazolidin-2-one] | 96 to 97 °C |
| Cc1nc(N2CCN(Cc3ccccc3)C2=O)sc1C(=O)NCc1cccnc1 [Example 9.7, 2-(3-benzyl-2-oxoimidazolidin-1-yl)-4-methyl-N-(pyridin-3-ylmethyl)thiazole-5-carboxamide] | 153 to 154 °C |
| Cc1nc(N2C(=O)N(Cc3ccc(F)cc3)CC2O)sc1C(=O)NCc1ccccc1 (centres unmarked) [Example 16, N-benzyl-2-(3-(4-fluorobenzyl)-5-hydroxy-2-oxoimidazolidin-1-yl)-4-methylthiazole-5-carboxamide] | 133 to 134 °C |
| Cc1nc(N2CCN(CCCc3ccccc3)C2=O)sc1C(=O)O [Example 6.12, 4-methyl-2-(2-oxo-3-(3-phenylpropyl)imidazolidin-1-yl)thiazole-5-carboxylic acid] | 218 to 221 °C |
| Cc1cc(-c2sc(N3CCN(Cc4ccc(C(F)(F)F)cc4)C3=O)nc2C)n[nH]1 [Example 38.2, 1-(4-methyl-5-(5-methyl-1H-pyrazol-3-yl)thiazol-2-yl)-3-(4-(trifluoromethyl)benzyl)imidazolidin-2-one] | 238 to 239 °C |
| COC(=O)c1ccc(CN2CCN(c3nc(C)cs3)C2=O)cc1 [Example 5.13, methyl 4-((3-(4-methylthiazol-2-yl)-2-oxoimidazolidin-1-yl)methyl)benzoate] | 157 to 158 °C |

| SMILES | melting point |
| --- | --- |
| Cc1cc(N2CCN(Cc3ccc(F)cc3)C2=O)sc1C(=O)NCc1cccnc1 [Example 15.2, 5-(3-(4-fluorobenzyl)-2-oxoimidazolidin-1-yl)-3-methyl-N-(pyridin-3-ylmethyl)thiophene-2-carboxamide] | 119 to 120 °C |
| Cc1nc(N2C(=O)N(Cc3ccc(F)cc3)CC2O)sc1C(=O)NCc1cccnc1 (centres unmarked) [Example 16.2, 2-(3-(4-fluorobenzyl)-5-hydroxy-2-oxoimidazolidin-1-yl)-4-methyl-N-(pyridin-3-ylmethyl)thiazole-5-carboxamide] | 64 to 66 °C |
| Cc1nc(N2CCN(Cc3ccc(OC(F)(F)F)cc3)C2=O)sc1C(=O)NCCc1cccnc1 [Example 9.32, 4-methyl-2-(2-oxo-3-(4-(trifluoromethoxy)benzyl)imidazolidin-1-yl)-N-(2-(pyridin-3-yl)ethyl)thiazole-5-carboxamide] | 172 to 173 °C |
| Cc1cc(-n2cnn(Cc3ccc(S(C)(=O)=O)cc3)c2=O)sc1C(=O)NCc1cccnc1 [Example 31.4, 3-methyl-5-(1-(4-(methylsulfonyl)benzyl)-5-oxo-1H-1,2,4-triazol-4(5H)-yl)-N-(pyridin-3-ylmethyl)thiophene-2-carboxamide] | 208 to 210 °C |
| Cc1cc(-c2sc(N3CCN(Cc4ccc(C(F)(F)F)cc4)C3=O)nc2C)on1 [Example 38.3, 1-(4-methyl-5-(3-methylisoxazol-5-yl)thiazol-2-yl)-3-(4-(trifluoromethyl)benzyl)imidazolidin-2-one] | 201 to 203 °C |
| Cc1nc(N2CCN(Cc3ccc(C(F)(F)F)cc3)C2=O)sc1-c1cc[nH]n1 [Example 38, 1-(4-methyl-5-(1H-pyrazol-3-yl)thiazol-2-yl)-3-(4-(trifluoromethyl)-benzyl)imidazolidin-2-one] | 212 to 213 °C |
| Cc1nc(-n2cnn(Cc3ccc(F)cc3)c2=O)sc1C(=O)NCc1cccnc1 [Example 21.3, 2-(1-(4-fluorobenzyl)-5-oxo-1H-1,2,4-triazol-4(5H)-yl)-4-methyl-N-(pyridin-3-ylmethyl)thiazole-5-carboxamide] | 178 to 179 °C |
| Cc1cc(CN2CCN(c3nc(C)c(C(=O)NCc4cccnc4)s3)C2=O)no1 [Example 32.3, 4-methyl-2-(3-((5-methylisoxazol-3-yl)methyl)-2-oxoimidazolidin-1-yl)-N-(pyridin-3-ylmethyl)thiazole-5-carboxamide] | 185 to 188 °C |
| Cc1nc(N2CCN(Cc3c(C)noc3-c3ccccc3)C2=O)sc1C(=O)NCc1cccnc1 [Example 32.4, 4-methyl-2-(3-((3-methyl-5-phenylisoxazol-4-yl)methyl)-2-oxoimidazolidin-1-yl)-N-(pyridin-3-ylmethyl)thiazole-5-carboxamide] | 109 to 111 °C |
| Cc1nc(-n2cnn(Cc3ccc(OC(F)F)cc3)c2=O)sc1C(=O)NCc1cccnc1 [Example 21.1, 2-(1-(4-(difluoromethoxy)benzyl)-5-oxo-1H-1,2,4-triazol-4(5H)-yl)-4-methyl-N-(pyridin-3-ylmethyl)thiazole-5-carboxamide] | 151 to 152 °C |
| Cc1nc(N2CCN(Cc3nccc4ccccc34)C2=O)sc1C(=O)NCc1cccnc1 [Example 32.1, 2-(3-(isoquinolin-1-ylmethyl)-2-oxoimidazolidin-1-yl)-4-methyl-N-(pyridin-3-ylmethyl)thiazole-5-carboxamide] | 151 to 153 °C |
| COC(=O)c1cccc(CN2CCN(c3nc(C)c(C(C)=O)s3)C2=O)c1 [Example 5.17, methyl 3-((3-(5-acetyl-4-methylthiazol-2-yl)-2-oxoimidazolidin-1-yl)methyl)benzoate] | 122 to 124 °C |
| Cc1nc(N2CCN(Cc3ccc(F)cc3)C2=O)sc1C(=O)NCc1ccccn1 [Example 32.21, 2-(3-(4-fluorobenzyl)-2-oxoimidazolidin-1-yl)-4-methyl-N-(pyridin-2-ylmethyl)thiazole-5-carboxamide] | 183 to 185 °C |
| CNC(=O)c1ccc(CN2CCN(c3nc(C)c(C(C)=O)s3)C2=O)cc1 [Example 8.6, 4-((3-(5-acetyl-4-methylthiazol-2-yl)-2-oxoimidazolidin-1-yl)methyl)-N-methylbenzamide] | 173 to 175 °C |
| Cc1nc(N2CCN(Cc3ccc(OC(F)(F)F)cc3)C2=O)sc1C(=O)NCCC1CC1 [Example 8.3, N-(2-cyclopropylethyl)-4-methyl-2-(2-oxo-3-(4-(trifluoromethoxy)benzyl)imidazolidin-1-yl)thiazole-5-carboxamide] | 195 to 196 °C |
| Cc1nc(-n2ccn(CCc3ccc(F)cc3)c2=O)sc1C(=O)NCc1cccnc1 [Example 17.1, 2-(3-(4-fluorophenethyl)-2-oxo-2,3-dihydro-1H-imidazol-1-yl)-4-methyl-N-(pyridin-3-ylmethyl)thiazole-5-carboxamide] | 160 to 162 °C |
| Cc1nc(N2CCN(Cc3ccccc3)C2=O)sc1C(=O)NCc1ccc(F)c(F)c1 [Example 9.5, 2-(3-benzyl-2-oxoimidazolidin-1-yl)-N-(3,4-difluorobenzyl)-4-methylthiazole-5-carboxamide] | 152 to 153 °C |
